From patent US11207320B2, “Compositions and methods for cancer expressing PDE3A or SLFN12” (The Broad Institute, Inc., priority 2015, dated 2021)

Assays:
HeLa cells = experiment: Knockdown of SLFN12 expression using shRNA and testing for drug sensitivity; type: cell-based; settings: 72 hours
From the text: FIG. 15A is a scatterplot showing mRNA robust multichip average (RMA) expression values for PDE3A and SLFN12 from the Cancer Cell Line Encyclopedia (CCLE) database (a detailed genetic characterization of a large panel of human cancer cell lines) with sensitive cell lines indicated (Barretina et al., Nature 483, 603-607, 2012). 21 sensitive cell lines were binned in three groups of 7 based on area under the curve (AUC) rank. FIG. 15B is a bar graph showing results of a Fisher's exact test on DNMDP sensitivity of cell lines with high expression of both SLFN12 and PDE3A (RMA Log 2>5) compared to other cell lines. The top half of the bar on the right indicates melanoma cell lines. FIG. 15C is a scatterplot showing mRNA RPKM+1 expression values for PDE3A and SLFN12 from RNA sequencing data. FIG. 15D is a bar graph showing qPCR expression changes of SLFN12 in HeLa cells transduced with shSLFN12 normalized to GAPDH. FIG. 15E is a plot showing viability of HeLa cells transduced with indicated shRNA reagents and treated with indicated concentrations of DNMDP for 72 hours.
Constructs expressing shRNAs targeting SLFN12, or the control vector, were packaged into lentiviruses and delivered into HeLa cells by viral transduction. […] SLFN12-targeting shRNAs were used, all of which were obtained from the TRC (CloneIDs: TRCN0000152141 and TRCN0000153520). […]

A549 cells = experiment: Compound library screening and dose-response retest, cell viability (ATP content, CellTiter-Glo); type: cell-based; settings: A549, 48 hours
Experimental: (§1) To identify anti-cancer compounds with cell-selective cytotoxic activity, an unbiased chemical screen was performed in two lung adenocarcinoma cell lines, A549 and NCI-H1734, both of which harbor oncogenic KRAS mutations and truncating STK11 mutations, and which were TP53 wild type and mutant (R273L), respectively. 1,924 compounds were screened from the Molecular Libraries Small-Molecule Repository validation set in the A549 and NCI-H1734 cell lines at a single concentration of 10 μM in 384-well format in duplicate. As a proxy for cellular viability, ATP content was measured after 48 hours of compound treatment.
(§2) 1500 NCI-H1734 or 1000 A549 cells were plated in a 384-well plate in 40 μl of RPMI supplemented with 10% Fetal Bovine Serum and 1% Pen/Strep. 24 hours after plating, a compound-library of 1924 small molecules was added at a concentration of 10 μM. Staurosporine was used a positive control for cytotoxicity at a concentration of 10 μM, and DMSO was used a negative control at a concentration of 1%. All compounds were incubated for 48 hours with indicated small molecules. […] Cell viability was assessed by adding 40 μl of a 25% CELLTITERGLO® (Promega) in PBS with a THERMO COMBI™ or multichannel-pipette and incubated for 10 minutes. The luminescence signal was read using a Perkin-Elmer EnVision. Viability percentage was calculated by normalizing to DMSO controls.

NCI-H1734 cells = experiment: as above; type: cell-based; settings: NCI-H1734, 48 hours
Experimental: as §1, §2

PDE3A = PDE3A (Homo sapiens, UniProt Q14432); experiment: Linker-affinity purification of molecular target of DNMDP and immunoblotting; type: binding; set-up: Immunoprecipitation of endogenous PDE3A in HeLa cells; endogenous in cells; host or cells: HeLa; settings: HeLa cell lysate, competitor 10 μM, immunoblot for PDE3A
Experimental: To identify the molecular target of DNMDP, an affinity purification was performed using an (R)-des-nitro-DNMDP solid-phase tethered linker analogue (FIG. 10A) incubated with HeLa cell lysate. […] It was competed for the molecular target by adding either an excess of trequinsin or separate enantiomers of DNMDP, where only the (R)-enantiomer was cytotoxic. […] Binding of PDE3A to the linker analogue was blocked by both trequinsin and (R)-DNMDP, but not by the non-cytotoxic enantiomer (S)-[…]. 9C). Thus both trequinsin and (R)-DNMDP prevented the binding of PDE3A to the tethered DNMDP analogue, and it was concluded that both molecules bind PDE3A directly. HeLa cells were washed with ice-cold PBS before lysed with NP-40 lysis buffer (150 mM NaCl, 10% glycerol, 50 mM Tris-Cl pH 8.0, 50 mM MgCl2, 1% NP-40) supplemented with EDTA-free protease inhibitors (Roche) and phosphatase inhibitor mixtures I and II (Calbiochem). […] Samples were washed three times with lysis buffer containing corresponding compound concentrations of 10 μM. Proteins bound to Affi-Gel 102 resin were reduced, denatured, and separated using Tris-Glycine gels (Novex) and transferred to nitrocellulose membranes using the iBlot transfer system (Novex). Membranes were incubated overnight at 4° C. with primary antibodies against PDE3A (1:1000, Bethyl). […]

PDE3A, sequence (Q14432 whole entry): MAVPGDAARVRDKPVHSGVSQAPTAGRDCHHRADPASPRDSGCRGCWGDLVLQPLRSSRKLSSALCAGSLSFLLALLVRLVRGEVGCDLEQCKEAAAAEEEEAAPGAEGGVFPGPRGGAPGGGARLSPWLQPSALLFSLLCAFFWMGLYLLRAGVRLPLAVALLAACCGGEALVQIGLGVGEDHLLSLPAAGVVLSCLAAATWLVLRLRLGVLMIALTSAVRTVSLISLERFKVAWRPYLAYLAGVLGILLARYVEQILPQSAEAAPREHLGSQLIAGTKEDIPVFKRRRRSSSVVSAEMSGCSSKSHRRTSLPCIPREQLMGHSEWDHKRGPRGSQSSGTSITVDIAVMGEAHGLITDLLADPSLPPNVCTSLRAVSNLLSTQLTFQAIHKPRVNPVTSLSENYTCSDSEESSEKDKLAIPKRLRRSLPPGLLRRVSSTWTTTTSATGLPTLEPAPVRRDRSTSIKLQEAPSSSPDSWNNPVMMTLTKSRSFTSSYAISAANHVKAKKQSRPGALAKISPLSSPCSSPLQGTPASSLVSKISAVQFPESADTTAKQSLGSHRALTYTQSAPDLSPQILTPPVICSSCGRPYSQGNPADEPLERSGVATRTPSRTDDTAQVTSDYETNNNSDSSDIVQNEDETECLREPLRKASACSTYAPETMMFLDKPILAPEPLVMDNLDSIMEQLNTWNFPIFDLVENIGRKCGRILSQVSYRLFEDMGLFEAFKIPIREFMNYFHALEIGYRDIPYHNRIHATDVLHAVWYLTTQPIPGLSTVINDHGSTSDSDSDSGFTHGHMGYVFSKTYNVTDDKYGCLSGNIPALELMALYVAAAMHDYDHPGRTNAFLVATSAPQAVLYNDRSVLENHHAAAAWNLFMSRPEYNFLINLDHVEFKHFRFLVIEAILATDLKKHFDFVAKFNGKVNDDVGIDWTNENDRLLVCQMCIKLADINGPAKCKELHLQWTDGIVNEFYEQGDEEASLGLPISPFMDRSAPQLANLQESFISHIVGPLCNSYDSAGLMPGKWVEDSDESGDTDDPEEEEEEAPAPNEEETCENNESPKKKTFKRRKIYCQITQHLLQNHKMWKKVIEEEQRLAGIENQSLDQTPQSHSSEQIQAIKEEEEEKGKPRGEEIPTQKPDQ

| blocking of binding of PDE3A to the tethered linker analogue (PDE3A) | SMILES | sensitivity after reduction of SLFN12 expression (shRNA) (HeLa cells) | effect on cell viability (A549 cells) | toxicity in dose-response analysis (NCI-H1734 cells) |
| --- | --- | --- | --- | --- |
|  | CCN(CC)c1ccc(C2=NNC(=O)CC2C)cc1[N+](=O)[O-] (stereo not shown) [DNMDP, 6-(4-(diethylamino)-3-nitrophenyl)-5-methyl-4,5-dihydropyridazin-3(2H)-one] | decreased sensitivity | did not affect cell viability | specifically toxic |
| blocked | COc1cc2c(cc1OC)-c1c/c(=N\c3c(C)cc(C)cc3C)n(C)c(=O)n1CC2 [trequinsin, 9,10-dimethoxy-3-methyl-2-(2,4,6-trimethylphenyl)imino-6,7-dihydropyrimido[6,1-a]isoquinolin-4-one] |  |  |  |
